# Several values for one entry are separate records, joined by “and”; a condition that tells them apart may be missing. Equal values may be shown once.
# Columns and labels:
# S. epidermidis ATCC14990 = assay: MIC by microdilution, S. epidermidis ATCC14990; type: cell-based, Staphylococcus epidermidis; settings: S. epidermidis ATCC14990 (MecA negative, wild-type), in duplicate
# Description: (§1) The antibacterial profile of each derivative was evaluated by the standard microdilution method for susceptibility testing on 16 different strains, following the guidelines of CLSI. The selected panel included: • S. aureus ATCC25923 (MecA negative, wild-type) • S. aureus ATCC29213 (MecA negative, wild-type) • S. aureus ATCC700699 (MecA positive, glycopeptide resistant) • S. aureus ST20131365 (MecA positive, glycopeptide resistant) • S. epidermidis ATCC14990 (MecA negative, wild-type) • S. epidermidis ATCC35984 (MecA positive) • S. epidermidis ST20140436 (MecA positive, glycopeptide resistant) • S. epidermidis ST20150446 (MecA positive, glycopeptide resistant) • E. faecalis JH2-2 (wild-type) • E. faecalis UCN41 (VanA positive, glycopeptide resistant) • E. faecalis V583 (VanB positive, glycopeptide resistant) • E. faecium ATCC19434T (wild-type) • E. faecium BM4147 (VanA positive, glycopeptide resistant) • E. faecium AUS0004 (VanB positive, glycopeptide resistant) • E. coli ATCC25922 (wild-type) • Clostridium difficile ATCC9689 (wild-type)
# (§2) Both series issued from the SAR study were evaluated for their antibacterial activity on a panel of characterized strains obtained from the French National Reference Centers for Staphylococci (Lyon, Pr. Fréderique Laurent) and for Enterococci (Caen, Pr. Vincent Cattoir), respectively. As shown in the following tables, both series contain very active compounds on multi-resistant Gram-positive bacteria (Minimal Inhibitory Concentrations lower than comparator antibiotic ampicillin). Furthermore, a very important antibacterial effect has been shown too on a strain of Clostridium difficile, a Gram-positive, spore-forming, bacillus responsible for post-antibiotic diarrhoae.
# (§3) The antibacterial activity of test compounds was evaluated on a selected panel of Gram-positive (4 Staphylococcus aureus, 4 Staphylococcus epidermidis, 3 Enterococcus faecalis, 3 Enterococcus faecium, 1 Clostridium difficile) and Gram-negative strains (1 Escherichia coli, 1 Klebsiella pneumoniae, 1 Pseudomonas aeruginosa, 1 Acinetacter baumannii) with known features of antibiotic resistance (from wild-type susceptibility to multi-drug resistance). The Minimal Inhibitory Concentration (MIC) of test compounds was determined in duplicate by the microdilution method in 96-well microplates with a final volume of 100 μL per well and Mueller-Hinton broth as the growth medium, as recommended by the CLSI (Clinical and Laboratory Standards Institute, document Mo7-A10, USA).
# E. faecium BM4147 = assay: MIC by microdilution, E. faecium BM4147; type: cell-based, Enterococcus faecium; set-up: unit not given here; settings: E. faecium BM4147 (VanA positive, glycopeptide resistant), in duplicate
# Description: as §1, §2, §3
# E. faecium AUS0004 = assay: MIC by microdilution, E. faecium AUS0004; type: cell-based, Enterococcus faecium; settings: E. faecium AUS0004 (VanB positive, glycopeptide resistant), in duplicate
# Description: as §1, §2, §3
# S. aureus ATCC700699 = assay: MIC by microdilution, S. aureus ATCC700699; type: cell-based, Staphylococcus aureus; set-up: unit not given here; settings: S. aureus ATCC700699 (MecA positive, glycopeptide resistant), in duplicate
# Description: as §1, §2, §3
# E. coli ATCC25922 = assay: MIC by microdilution, E. coli ATCC25922; type: cell-based, Escherichia coli; settings: E. coli ATCC25922 (wild-type), in duplicate
# Description: as §1, §2, §3
# S. epidermidis ATCC35984 = assay: MIC by microdilution, S. epidermidis ATCC35984; type: cell-based, Staphylococcus epidermidis; settings: S. epidermidis ATCC35984 (MecA positive), in duplicate
# Description: as §1, §2, §3
# E. faecalis JH2-2 = assay: MIC by microdilution, E. faecalis JH2-2; type: cell-based, Enterococcus faecalis; set-up: unit not given here; settings: E. faecalis JH2-2 (wild-type), in duplicate
# Description: as §1, §2, §3
# E. faecalis UCN41 = assay: MIC by microdilution, E. faecalis UCN41; type: cell-based, Enterococcus faecalis; set-up: unit not given here; settings: E. faecalis UCN41 (VanA positive, glycopeptide resistant), in duplicate
# Description: as §1, §2, §3
# S. aureus ST20131365 = assay: MIC by microdilution, S. aureus ST20131365; type: cell-based, Staphylococcus aureus; settings: S. aureus ST20131365 (MecA positive, glycopeptide resistant), in duplicate
# Description: as §1, §2, §3
# [1] = tested on: panel of Gram-positive and Gram-negative strains; assay: Antibacterial profile on the selected panel of strains; type: cell-based; settings: summary of Tables 1-12
# Description: as §1, §2, §3
# [2] = tested on: S. epidermidis ST20140436; assay: MIC by microdilution, S. epidermidis ST20140436; type: cell-based, Staphylococcus epidermidis; settings: S. epidermidis ST20140436 (MecA positive, glycopeptide resistant), in duplicate
# Description: as §1, §2, §3
# E. faecium ATCC19434T = assay: MIC by microdilution, E. faecium ATCC19434T; type: cell-based, Enterococcus faecium; set-up: unit not given here; settings: E. faecium ATCC19434T (wild-type), in duplicate
# Description: as §1, §2, §3
# [3] = tested on: Clostridium difficile ATCC700057; assay: MIC by microdilution, Clostridium difficile; type: cell-based; settings: strain ATCC70057 [sic] (Tables 1-2) / ATCC700057 (Tables 3-10), in duplicate
# E. faecalis V583 = assay: MIC by microdilution, E. faecalis V583; type: cell-based, Enterococcus faecalis; settings: E. faecalis V583 (VanB positive, glycopeptide resistant), in duplicate
# Description: as §1, §2, §3
# [4] = tested on: S. epidermidis ST20150446; assay: MIC by microdilution, S. epidermidis ST20150446; type: cell-based, Staphylococcus epidermidis; settings: S. epidermidis ST20150446 (MecA positive, glycopeptide resistant), in duplicate
# Description: as §1, §2, §3
# S. aureus ATCC25923 = assay: MIC by microdilution, S. aureus ATCC25923; type: cell-based, Staphylococcus aureus; settings: S. aureus ATCC25923 (MecA negative, wild-type), Mueller-Hinton broth, in duplicate
# Description: as §1, §2, §3
# S. aureus ATCC29213 = assay: MIC by microdilution, S. aureus ATCC29213; type: cell-based, Staphylococcus aureus; settings: S. aureus ATCC29213 (MecA negative, wild-type), Mueller-Hinton broth, in duplicate
# Description: as §1, §2, §3
SMILES,Minimal Inhibitory Concentration (MIC) (S. epidermidis ATCC14990),Minimal Inhibitory Concentration (MIC) (E. faecium BM4147),Minimal Inhibitory Concentration (MIC) (E. faecium AUS0004),Minimal Inhibitory Concentration (MIC) (S. aureus ATCC700699),Minimal Inhibitory Concentration (MIC) (E. coli ATCC25922),Minimal Inhibitory Concentration (MIC) (S. epidermidis ATCC35984),Minimal Inhibitory Concentration (MIC) (E. faecalis JH2-2),Minimal Inhibitory Concentration (MIC) (E. faecalis UCN41),Minimal Inhibitory Concentration (MIC) (S. aureus ST20131365),antimicrobial / antibacterial activity (in words) [1],Minimal Inhibitory Concentration (MIC) [2],Minimal Inhibitory Concentration (MIC) (E. faecium ATCC19434T),Minimal Inhibitory Concentration (MIC) [3],Minimal Inhibitory Concentration (MIC) (E. faecalis V583),Minimal Inhibitory Concentration (MIC) [4],Minimal Inhibitory Concentration (MIC) (S. aureus ATCC25923),Minimal Inhibitory Concentration (MIC) (S. aureus ATCC29213)
CC[P+](CC)(CC)[Au-][c]1nn[nH]c1-c1cccc(C(=O)NC(C(=O)NC2C(=O)N3C2SC(C)(C)C3C(=O)O)c2ccccc2)c1 (stereo not shown) [TMB12],≤0.06,1,0.5,0.125 and 0.25,>8,≤0.06,0.5,0.5 and 1,0.5,have antimicrobial activity,≤0.06,0.5,≤0.06,1,≤0.06,–,–
CC[P+](CC)(CC)[Au-][c]1nn[nH]c1-c1cccc(C(=O)NC(C(=O)O)c2ccccc2)c1 (stereo not shown) [TMB20],≤0.06,0.25 and 0.5,0.25,0.125,>8,≤0.06,0.25,0.25,0.125,have antimicrobial activity,≤0.06,0.25,≤0.06,0.25 and 0.5,–,0.125,–
CC[P+](CC)(CC)[Au-][c]1nn[nH]c1CCC(=O)NC(C(=O)O)c1ccccc1 (stereo not shown) [TMB21],≤0.06,0.25 and 0.5,0.25,0.125,>8,≤0.06,0.25,0.25,0.125,have antimicrobial activity,≤0.06,0.25,≤0.06,0.25 and 0.5,≤0.06,–,–
CC[P+](CC)(CC)[Au-][c]1nn[nH]c1CCS(N)(=O)=O [TMB36],≤0.06,0.5,0.25,0.125,>8,≤0.06,0.25,0.25,–,have antimicrobial activity,≤0.06,0.25,≤0.06,0.5,≤0.06,≤0.06,–
CC[P+](CC)(CC)[Au-][c]1nn[nH]c1-c1ccc(C(=O)O)cn1 [TMB39],≤0.06,0.125,0.5,≤0.06,–,≤0.06,0.25,0.25,≤0.06,have antimicrobial activity,≤0.06,0.125,0.25 and 0.5,0.25,≤0.06,≤0.06,≤0.06
O=C(N[C@@H](C(=O)O)c1ccccc1)OCc1cnn[nH]1 [TMB41],>8,>8,>8,>8,–,>8,>8,>8,>8,do not show an antibacterial activity,>8,>8,>8,>8,>8,>8,>8
CC[P+](CC)(CC)[Au-][c]1nn[nH]c1CNC(=O)CCCC[C@@H]1SC[C@@H]2NC(=O)N[C@@H]21 [TMB42],≤0.06,0.5,0.5,0.25,–,≤0.06,0.25,1,0.25,have antimicrobial activity,≤0.06,0.25,0.25,1,≤0.06,0.125,0.25
CC[P+](CC)(CC)[Au-][c]1nn[nH]c1-c1c(C)noc1C [TMB43],≤0.06,0.125,0.25,0.125,–,≤0.06,0.25,0.25,0.125,have antimicrobial activity,0.125,0.125,0.25,0.25,≤0.06,≤0.06,0.125

# Reference: US20210284668A1, “GOLD (I)-PHOSPHINE 1,2,3-TRIAZOLE DERIVATIVES WITH ANTIBIOTIC PROPERTIES” (Centre National de la Recherche Scientifique, priority 2018, published 2021)
